Experimental data published in patent US20230219939A1, “N-(1-CYANO-PYRROLIDIN-3-YL)-5-(3-(TRIFLUOROMETHYL)PHENYL)OXAZOLE-2-CARBOXAMIDE DERIVATIVES AND THE CORRESPONDING OXADIAZOLE DERIVATIVES AS USP30 INHIBITORS FOR THE TREATMENT OF MITOCHONDRIAL DYSFUNCTION” (MISSION THERAPEUTICS LIMITED, priority 2020, published 2023).
Values joined by “and” are separate entries in the source; they are usually repeats but may differ in a detail not shown here. Equal entries are not always repeated. Where two headings read alike, the source gives them in different places.

Key:
UCHL1 = target: T1, UCHL1 (Homo sapiens, UniProt P09936); test: UCHL1 DUB IC50; assay type: biochemical
T1 sequence (P09936 1-223): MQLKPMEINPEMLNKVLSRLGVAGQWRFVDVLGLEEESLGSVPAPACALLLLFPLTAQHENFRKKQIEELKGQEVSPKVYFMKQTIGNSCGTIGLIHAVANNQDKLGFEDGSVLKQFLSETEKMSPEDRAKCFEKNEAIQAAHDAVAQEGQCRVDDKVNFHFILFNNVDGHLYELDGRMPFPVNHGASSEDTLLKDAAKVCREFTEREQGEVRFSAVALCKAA

USP30 = target: T2, USP30 (Homo sapiens, UniProt Q70CQ3); test: USP30 biochemical IC50 assay (fluorescence polarisation)
T2 construct: purchased Boston Biochem E582
T2 sequence (Q70CQ3 57-517 limits assumed): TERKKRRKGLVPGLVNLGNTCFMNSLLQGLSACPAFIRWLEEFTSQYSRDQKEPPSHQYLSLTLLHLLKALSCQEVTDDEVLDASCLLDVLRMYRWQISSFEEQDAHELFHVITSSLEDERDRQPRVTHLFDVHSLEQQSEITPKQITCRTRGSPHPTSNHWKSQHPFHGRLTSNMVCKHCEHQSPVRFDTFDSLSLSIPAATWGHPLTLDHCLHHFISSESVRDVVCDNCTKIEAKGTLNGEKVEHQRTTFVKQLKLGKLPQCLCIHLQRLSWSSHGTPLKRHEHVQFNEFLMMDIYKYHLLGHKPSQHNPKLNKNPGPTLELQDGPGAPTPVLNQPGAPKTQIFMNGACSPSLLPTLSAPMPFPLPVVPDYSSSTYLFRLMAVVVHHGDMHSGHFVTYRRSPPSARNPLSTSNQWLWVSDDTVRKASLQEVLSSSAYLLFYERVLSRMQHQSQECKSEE
Protocol: Dilution plates were prepared at 21 times the final concentration (2100 μM for a final concentration of 100 μM) in 50% DMSO in a 96-well polypropylene V-bottom plate (Greiner #651201). A typical 8-point dilution series would be 100, 30, 10, 3, 1, 0.3, 0.1, 0.03 μM final. Reactions were performed in duplicate in black 384 well plates (small volume, Greiner 784076) in a final reaction volume of 21 μl. Either 1 μl of 50% DMSO or diluted compound was added to the plate. USP30 (Boston Biochem #E582) was diluted in reaction buffer (40 mM Tris, pH 7.5, 0.005% Tween 20, 0.5 mg/ml BSA, 5 mM beta-mercaptoethanol) to achieve a final assay concentration of 4 nM, and 10 μl of diluted USP30 was added to the compound. Enzyme and compound were incubated for 30 min at room temp. Reactions were initiated by the addition of 50 nM of TAMRA labelled peptide linked to ubiquitin via an iso-peptide bond as fluorescence polarisation substrate. Reactions were read immediately after addition of substrate and following a 2-hour incubation at room temperature. Readings were performed on a Pherastar Plus (BMG Labtech). λ Excitation 540 nm; λ Emission 590 nm.

[1] = system: USP2, USP6, USP10, USP16, USP21, USP22, USP25, USP28; test: DUB selectivity panel IC50; assay type: biochemical
Cathepsin B = Cathepsin B (Homo sapiens, UniProt P07858); test: Cathepsin B IC50; assay type: biochemical
Cathepsin L = Cathepsin L (Homo sapiens, UniProt P07711); test: Cathepsin L IC50; assay type: biochemical
Cathepsin L, sequence (P07711 114-333, species assumed): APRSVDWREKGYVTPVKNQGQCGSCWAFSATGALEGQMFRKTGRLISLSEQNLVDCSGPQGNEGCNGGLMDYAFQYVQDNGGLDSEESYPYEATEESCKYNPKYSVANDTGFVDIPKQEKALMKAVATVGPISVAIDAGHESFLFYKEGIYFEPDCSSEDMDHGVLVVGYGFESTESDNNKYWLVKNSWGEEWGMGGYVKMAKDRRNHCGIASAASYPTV

Cathepsin V = Cathepsin V (Homo sapiens, UniProt O60911); test: Cathepsin V IC50; assay type: biochemical
Cathepsin V, sequence (O60911 114-334, species assumed): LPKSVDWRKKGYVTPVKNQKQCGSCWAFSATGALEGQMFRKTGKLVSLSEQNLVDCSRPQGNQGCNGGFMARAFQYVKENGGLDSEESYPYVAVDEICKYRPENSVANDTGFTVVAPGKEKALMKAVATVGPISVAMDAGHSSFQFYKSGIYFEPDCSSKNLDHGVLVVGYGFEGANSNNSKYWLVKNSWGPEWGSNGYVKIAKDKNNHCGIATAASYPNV

Cathepsins B, K, L, S, V = test: Cathepsin panel IC50 (summary over B, K, L, S, V); assay type: biochemical; settings: for IC50: range over the five cathepsins
mouse hepatocytes = test: Hepatocyte Cl mouse; assay type: in vitro ADME
Protocol: Hep Cl mouse: in vitro hepatocyte clearance in mouse cells.
Clu: in vitro clearance. Clu as defined here is the scaled clearance, in turn calculated from the intrinsic clearance. The intrinsic clearance is the predicted clearance due to hepatic metabolic reactions, determined from incubation of a compound in a hepatocyte preparation.

Mouse plasma stability = assay type: in vitro ADME; settings: mouse plasma; read-out: Stability Mouse plasma t1/2
Cathepsin K = target: T3, Cathepsin K (Homo sapiens, UniProt P43235); test: Cathepsin K IC50; assay type: biochemical
T3 sequence (P43235 115-329): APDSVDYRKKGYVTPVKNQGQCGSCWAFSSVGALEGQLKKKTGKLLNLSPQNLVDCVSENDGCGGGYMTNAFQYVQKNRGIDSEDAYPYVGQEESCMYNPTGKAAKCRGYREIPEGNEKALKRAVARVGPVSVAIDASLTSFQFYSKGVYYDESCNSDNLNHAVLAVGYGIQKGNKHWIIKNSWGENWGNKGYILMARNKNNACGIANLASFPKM

Cathepsin S = Cathepsin S (Homo sapiens, UniProt P25774); test: Cathepsin S IC50; assay type: biochemical
Cathepsin S, sequence (P25774 115-331, species assumed): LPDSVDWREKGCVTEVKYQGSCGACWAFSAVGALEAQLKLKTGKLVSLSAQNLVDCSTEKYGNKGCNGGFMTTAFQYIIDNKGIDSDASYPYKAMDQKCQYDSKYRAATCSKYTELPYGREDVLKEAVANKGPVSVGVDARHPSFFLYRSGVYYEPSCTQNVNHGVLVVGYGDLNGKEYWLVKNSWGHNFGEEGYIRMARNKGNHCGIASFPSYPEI

[2] = USP30 biochemical IC50 assay, read-out: USP30 IC50
[3] = range over the eight DUBs, read-out: DUB IC50 (μM) USP2, USP6, USP10, USP16, USP21, USP22, USP25, USP28
[4] = read-out: Cathepsin IC50 (μM) Cathepsin L
[5] = read-out: Cathepsin IC50 (μM) Cathepsin U
[6] = read-out: Cathepsin IC50 (μM) B, K, U, S, V
[7] = read-out: Cathepsin IC50 (μM) B, K, L, S, V

SMILES | IC50 (USP30; [2]) | IC50 (USP30; read-out: DUB IC50 (μM) USP30) | IC50 [1, 3] | IC50 (UCHL1) | IC50 (Cathepsin B) | IC50 (Cathepsin V) | also measured
CC1CC(C(=O)Nc2ncc(-c3ccccc3)s2)CN1C#N (stereo not drawn) [Reference Example D, reference compound] |  |  |  |  |  |  | fold more potent against USP30 than UCHL1 (UCHL1): 1.5 fold
COC[C@@H]1C[C@@H](NC(=O)c2nnc(-c3cc(C(F)(F)F)ccc3OC)o2)CN1C#N [Example 10, N-((3R,5S)-1-Cyano-5-(methoxymethyl)pyrrolidin-3-yl)-5-(2-methoxy-5-(trifluoromethyl)phenyl)-1,3,4-oxadiazole-2-carboxamide] | 0.041 µM |  |  |  |  |  | 
COC[C@@H]1C[C@@H](NC(=O)c2nnc(-c3cccc(C(F)(F)F)c3)o2)CN1C#N [Example 8, N-((3R,5S)-1-Cyano-5-(methoxymethyl)pyrrolidin-3-yl)-5-(3-(trifluoromethyl)phenyl)-1,3,4-oxadiazole-2-carboxamide] | 0.038 µM | 0.038 µM and 0.004 to 0.033 µM | 4.6 to 78.9 µM | > 300 µM | 116 µM | > 30 µM | IC50 (Cathepsin L; [4]): > 30 µM
COC[C@@H]1C[C@@H](NC(=O)c2nnc(-c3cc(C(F)(F)F)ccc3OC3CC3)o2)CN1C#N [Example 5, N-((3R,5S)-1-Cyano-5-(methoxymethyl)pyrrolidin-3-yl)-5-(2-cyclopropoxy-5-(trifluoromethyl)phenyl)-1,3,4-oxadiazole-2-carboxamide] | 0.041 µM |  |  |  |  |  | 
N#CN1C[C@H](NC(=O)c2ncc(-c3cccc(C(F)(F)F)c3)o2)C[C@H]1Cn1ccnn1 [Example 4, N-((3R,5S)-5-((1H-1,2,3-Triazol-1-yl)methyl)-1-cyanopyrrolidin-3-yl)-5-(3-(trifluoromethyl)phenyl) oxazole-2-carboxamide] | 0.004 µM |  |  |  |  |  | 
C[C@@H]1C[C@@H](NC(=O)c2nnc(-c3cc(C(F)(F)F)ccc3OC3CC3)o2)CN1C#N [Example 6, N-((3R,5R)-1-Cyano-5-methylpyrrolidin-3-yl)-5-(2-cyclopropoxy-5-(trifluoromethyl)phenyl)-1,3,4-oxadiazole-2-carboxamide] | 0.073 µM |  |  |  |  |  | 
N#CN1CC[C@@H](NC(=O)c2cc(-c3ccc(C(F)(F)F)cc3)no2)C1 [Reference Example A, reference compound] | 0.12 µM | 0.12 µM |  |  | 0.85 µM | 7.2 µM | IC50 ([1]; range over seven DUBs, exc. USP6, read-out: DUB IC50 (μM) USP2, USP6, USP10, USP16, USP21, USP22, USP25, USP28 (exc. USP6)): 0.81 to 3 µM; IC50 (Cathepsin L; [5]): 2.1 µM; IC50 (Cathepsins B, K, L, S, V; [6]): ≥ 0.73 µM; Hepatocyte Cl mouse Scaled Clu (mouse hepatocytes): 118 mL/min/kg; half-life (Mouse plasma stability): > 120 min
COC[C@@H]1C[C@@H](NC(=O)c2nnc(-c3cc(C(F)(F)F)ccc3Cl)o2)CN1C#N [Example 11, 5-(2-Chloro-5-(trifluoromethyl)phenyl)-N-((3R,5S)-1-cyano-5-(methoxymethyl)pyrrolidin-3-yl)-1,3,4-oxadiazole-2-carboxamide] | 0.022 µM | 0.004 to 0.033 µM |  | > 300 µM |  |  | 
CS(=O)(=O)C[C@@H]1C[C@@H](NC(=O)c2ncc(-c3cccc(C(F)(F)F)c3)o2)CN1C#N [Example 3, N-((3R,5S)-1-Cyano-5-((methylsulfonyl)methyl)pyrrolidin-3-yl)-5-(3-(trifluoromethyl)phenyl)-oxazole-2-carboxamide] | 0.003 µM |  |  |  |  |  | 
N#CN1CC[C@H](C(=O)Nc2cn(-c3cccc(C(F)(F)F)c3)cn2)C1 [Reference Example B, reference compound] | 0.3 µM | 0.3 µM | 3.8 to 59.7 µM | 0.15 µM | 4.6 µM | 2.5 µM | DUB selectivity preference for USP30 v 7/8 DUBs ([1]; Ref. Ex. A 7 DUBs (exc. USP6), Ref. Ex. B 8 DUBs): 12.7-199; minimum fold more potent against USP30 than against each of the eight DUBs ([1]; USP2, USP6, USP10, USP16, USP21, USP22, USP25, USP28, 'A' not tested against USP6): 12.7 fold; DUB selectivity preference for USP30 v UCHL1 (UCHL1): 0.5; fold more potent against USP30 than UCHL1 (UCHL1): 0.5 fold; IC50 (Cathepsin K): 0.91 µM; fold more potent against USP30 than against cathepsin K (Cathepsin K): 3 fold; IC50 (Cathepsin L; [5]): 1.1 µM; IC50 (Cathepsin S): 6.4 µM; Selectivity preference for USP30 v cathepsins (Cathepsins B, K, L, S, V): 3.0-21; IC50 (Cathepsins B, K, L, S, V; [6]): 0.91 to 6.4 µM; Hepatocyte Cl mouse Scaled Clu (mouse hepatocytes): >121 mL/min/kg; half-life (Mouse plasma stability): 10.4 min
C[C@@H]1C[C@@H](NC(=O)c2nnc(-c3cccc(C(F)(F)F)c3)o2)CN1C#N [Example 7, N-((3R,5R)-1-Cyano-5-methylpyrrolidin-3-yl)-5-(3-(trifluoromethyl)phenyl)-1,3,4-oxadiazole-2-carboxamide] | 0.033 µM | 0.004 to 0.033 µM |  | > 300 µM |  |  | 
N#CN1CC[C@H](C(=O)Nc2ncc(-c3ccccc3)s2)C1 [C, reference compound] |  |  |  |  |  |  | fold more potent against USP30 than UCHL1 (UCHL1): 0.8 fold
COC[C@H]1C[C@@H](NC(=O)c2ncc(-c3cccc(C(F)(F)F)c3)o2)CN1C#N [Example 12, N-((3R,5R)-1-Cyano-5-(methoxymethyl)pyrrolidin-3-yl)-5-(3-(trifluoromethyl)phenyl)oxazole-2-carboxamide] | 0.015 µM | 0.015 µM | > 300 µM | 149 µM | > 300 µM | > 30 µM | DUB selectivity preference for USP30 v 8 DUBs [1]: >20000; DUB selectivity preference for USP30 v UCHL1 (UCHL1): 9933; IC50 (Cathepsin K): > 30 µM; IC50 (Cathepsin L; [4]): > 30 µM; IC50 (Cathepsin S): > 30 µM; Selectivity preference for USP30 v cathepsins (Cathepsins B, K, L, S, V): >2000; IC50 (Cathepsins B, K, L, S, V; [7]): > 30 µM
C[C@@H]1C[C@@H](NC(=O)c2ncc(-c3cccc(C(F)(F)F)c3)o2)CN1C#N [Example 2, N-((3R,5R)-1-cyano-5-methylpyrrolidin-3-yl)-5-(3-(trifluoromethyl)phenyl)oxazole-2-carboxamide] | 0.008 µM | 0.008 µM | 17.2 to 108 µM | 280 µM | 79 µM | 56 µM | IC50 (Cathepsin L; [4]): 7.9 µM
COC[C@@H]1C[C@@H](NC(=O)c2ncc(-c3cc(C(F)(F)F)ccc3OC3CC3)o2)CN1C#N [Example 9, N-((3R,5S)-1-cyano-5-(methoxymethyl)pyrrolidin-3-yl)-5-(2-cyclopropoxy-5-(trifluoromethyl)phenyl)-oxazole-2-carboxamide] | 0.004 µM | 0.004 µM and 0.004 to 0.033 µM | 2.9 to 135 µM | > 300 µM | > 300 µM | 101 µM | IC50 (Cathepsin L; [4]): 18.2 µM; IC50 (Cathepsins B, K, L, S, V; [7]): ≥ 9.9 µM
